This test deals with CEM cells HIV-1 protection, formazan growth assay. The test is described as follows: NCI AIDS Antiviral Assay. The conditions noted are these: for IC50: measured here: growth of uninfected CEM cells. The method in brief:
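Human CEM cells, uninfected and HIV-1-infected, exposed to five drug concentrations; growth measured by soluble formazan assay and scored as percent protection from infection, with protecting compounds retested.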

Active and inactive are the calls of the source.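 How the source made its calls: active means compounds giving half or more protection of infected cells from virus-caused growth loss, again on retest; inactive means the rest.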

Broadly, the EC50 is the concentration giving half of the maximal effect. By IC50 is commonly meant the concentration at which inhibition is half-maximal. High values mean weaker potency in that assay, low ones greater potency in that assay. In the case of `COCc1cn(C2CCC(CO)O2)c(=O)[nH]c1=O` (configuration not stated), the EC50 was greater than 490 µM and the IC50 stood at 269 µM. For `N#C/C(=C\c1ccc(O)c(O)c1)C(=O)NCN1CCN(C(=O)/C(C#N)=C/c2ccc(O)c(O)c2)CC1` the same measures were greater than 200 µM and 19.1 µM. For `O=C1C(Cl)C(c2cc(Br)cc(Br)c2O)N1n1cnc2ccccc2c1=O` (configuration not stated) the same measures were greater than 10.5 µM and greater than 10.5 µM.

As to `CC1=CC(O)CC(C)(C)C1/C=C/C(C)=C/C=C/C(C)=C/C=C/C=C(C)/C=C/C=C(C)/C=C/C1=C(C)CC(O)CC1(C)C` (configuration not stated), the EC50 is greater than 200 µM and the IC50 is 33.9 µM. On to `CC(=O)OC1CC2OC2(C)C2[C@H](O)C34O[C@@]3(C)C(=O)O[C@H]4/C=C(/C)C[C@H](OC(C)=O)[C@H](OC(C)=O)[C@@]12C` (some centres not stated), for which the EC50 was greater than 123 µM and the IC50 came to 75.9 µM. On to `O=C(O)CC1NC(/C(=C/c2ccccc2O)NC(=O)c2ccccc2)OC1=O` (configuration not stated), for which the outcome was inactive. Regarding `O=S1c2ccccc2N=C(c2ccc3ccccc3c2)CC1c1ccccc1F` (configuration not stated), the EC50 is greater than 18.2 µM and the IC50 was greater than 18.2 µM. For `OC1CSCCCSCC(O)CSCCCSC1` (configuration not stated), the EC50 is greater than 759 µM and the IC50 stood at 389 µM. With `O=C(O)CCC1CCc2cccc3oc(C(=O)O)c1c23` (configuration not stated), the outcome was inactive. `COC1(OC)CC2C(=O)N(Cc3ccccc3)C1C(S(=O)(=O)c1ccccc1)C2C(C)S(=O)(=O)c1ccccc1` (configuration not stated): the EC50 was greater than 23.4 µM and the IC50 was greater than 23.4 µM. Consider `O=C(CNc1cccc(Cl)c1)Nn1c(-c2ccccc2)nc2ccccc2c1=O`, for which the EC50 was greater than 200 µM and the IC50 was found to be 2.75 µM.

For the compound `CCCCCCCCCCCCCCCCOC(=O)c1cc(O)cc(C(=O)OCCCCCCCCCCCCCCCC)c1`, the result was inactive. For the compound `CC(=O)Oc1ccc[nH]c1=O`, the EC50 is greater than 200 µM and the IC50 was 58.9 µM. Taken in the same sequence, the figures for `N[C@H]1c2ccsc2C(=O)[C@H]1O` were greater than 1 µM and greater than 1 µM. For `COc1cc2c(c(OC)c1)C(C)=NC(C)C2` (configuration not stated) the same measures were greater than 200 µM and 141 µM. For `CN1CC2(CCCCC2)C(O)C12C=CCCC2` (configuration not stated) the same measures were greater than 380 µM and greater than 380 µM. In the case of `CCOC(=O)c1c(-c2[nH]c(C(=O)OCc3ccccc3)c(C)c2C(=O)OCC)[nH]c(C(=O)OCc2ccccc2)c1C`, the outcome was inactive. As to `CC1CC/C(=C\c2ccc(Cl)cc2)C(=O)/C1=C\c1ccc(Cl)cc1` (configuration not stated), the EC50 is greater than 200 µM and the IC50 was determined as 42.7 µM. For `CC(=O)Nc1cccc2cc(S(=O)(=O)O)ccc12` the same measures were greater than 200 µM and greater than 200 µM. Take `COC(=O)c1cc(C(=CCCc2ccccc2)c2cc(Br)c(OC)c(C(=O)OC)c2)cc(Br)c1OC`: the EC50 is greater than 200 µM and the IC50 stood at 11.2 µM. Taken in the same sequence, the figures for `O=C(O)CSc1ccc2c3c(cccc13)C(=O)c1ccccc1-2` were greater than 200 µM and 3.09 µM. On to `CC(C)(C)C(=O)C(c1ccc(-c2cscn2)cc1)c1ccc(-c2cscn2)cc1`, for which the EC50 is greater than 2.51 µM and the concentration for half-maximal inhibition (IC50) is greater than 2.51 µM. With `C=C1CC2CC(=O)C(O)C(C1)C2` (configuration not stated), the EC50 is greater than 200 µM and the IC50 is greater than 200 µM. For `S=c1sc2c(Cl)nc(Cl)nc2n1-c1ccccc1`, the EC50 was greater than 31.6 µM and the IC50 is greater than 31.6 µM.

In the case of `CCCCCCCCCCCCOP(=O)(O)OP(=O)(O)OCC1OC(n2ccc(N)nc2=O)CC1O` (configuration not stated), the EC50 was 57.5 µM and the IC50 is greater than 100 µM. For `COc1ccc2c(c1)O[C@]1(O)c3cc4c(cc3O[C@@H]1C2)OCO4`, the EC50 is greater than 12 µM and the IC50 was greater than 12 µM. As for `C[C@H]1NC(=O)C2CCCCN2C(=O)CN(C)C(=O)CNC(=O)C2CCCCN2C(=O)[C@@H](NC(=O)c2nc3ccccc3cc2O)[C@@H](C)NC(=O)C2CCCCN2C(=O)CN(C)C(=O)CNC(=O)[C@@H]2CCCCN2C(=O)C1NC(=O)c1nc2ccccc2cc1O` (some centres not stated), the EC50 was greater than 10.5 µM and the half-maximal inhibitory concentration (IC50) amounted to 0.0427 µM. For `COC(=O)c1nc(=S)[nH]c(C(=O)OC)c1C(=O)/C=C/c1ccccc1` the same measures were greater than 191 µM and 120 µM. As for `Cc1ccc(NCC(=O)N2CC(=O)Nc3ccccc32)c(C)c1`, the EC50 was greater than 17 µM and the IC50 was greater than 17 µM. Consider `CC1CC(c2ccc3ccccc3c2)NCCNC(c2ccc3ccccc3c2)CC(C)NCCN1` (configuration not stated), for which the EC50 was greater than 200 µM and the IC50 turned out to be 1.15 µM.

On to `Nc1cccc(C(=O)/C=C/c2ccccc2O)c1`, for which the EC50 is greater than 282 µM and the IC50 was found to be 55 µM. For `COc1cc2nc3c(nc2cc1OC)-c1ccccc1C3=O` the same measures were 3.02 µM and 9.33 µM. Taken in the same sequence, the figures for `O=C1C=CC(=O)C(CNc2ccc(C(=O)OC34CC5CC(CC(C5)C3)C4)cc2)=C1Br` were greater than 200 µM and 1.51 µM. On to `OC1C2CCN(CC2)C1CNC12CC3CC(CC(C3)C1)C2` (configuration not stated), for which the EC50 is greater than 1740 µM and the half-maximal inhibitory concentration (IC50) worked out at 295 µM. Take `CCN(CCCl)CCCCNc1c2ccccc2nc2ccc(OC)cc12`: the outcome was inactive. Consider `O=P1(c2ccccc2)CCCCC1`, for which the EC50 was 0.0631 µM and the IC50 is greater than 200 µM. For `CC(=O)/C=C\C(=O)NNS(=O)(=O)c1ccc(C)cc1` the same measures were greater than 891 µM and 832 µM. Taken in the same sequence, the figures for `CCCCN(CCCC)CCCCNc1c(C)cnc2cc(Cl)ccc12` were greater than 26.9 µM and 9.33 µM.

Consider `COc1ccc(CSCc2cc(OC)c(OC)c(OC)c2)cc1`, for which the EC50 is greater than 200 µM and the IC50 is 25.7 µM. With `Cc1csc2n/c(=N/[N+](=O)[O-])sn12`, the EC50 is greater than 138 µM and the IC50 is 66.1 µM. Taken in the same sequence, the figures for `CCCCN1C(CO)C(O)C(O)C(O)C1CO` (configuration not stated) were greater than 200 µM and greater than 200 µM.

With `O=C1CCC2(c3ccc(Cl)cc3)Nc3ccncc3N12` (configuration not stated), the EC50 is greater than 631 µM and the IC50 turned out to be 91.2 µM. Consider `COc1ccc(N2C(=O)C3CC4=CC(=O)C[C@H]4[C@H]32)cc1` (some centres not stated), for which the EC50 is greater than 200 µM and the IC50 worked out at 151 µM. On to `O=C1OCC(Cc2ccc3c(c2)OCO3)[C@H]1Cc1ccc(O)cc1` (some centres not stated), for which the EC50 is greater than 200 µM and the IC50 came out at 66.1 µM.

With `C[C@@H]1C(O)CC[C@H](C)C12CC=CC2=O` (some centres not stated), the EC50 is greater than 200 µM and the half-inhibitory concentration (IC50) is greater than 200 µM.

For `CCC(=O)OC1CCn2c1nc1c2C(=O)C(C)=C(N2CC2)C1=O` (configuration not stated), the EC50 was greater than 200 µM and the IC50 came out at 0.575 µM. Regarding `C/C(=N\Nc1ccc([N+](=O)[O-])cc1[N+](=O)[O-])c1sc(-n2nc(-c3ccccc3)cc2-c2ccccc2)nc1C`, the EC50 was greater than 126 µM and the IC50 came out at 42.7 µM. For `CN(C)CC1CCC/C(=C\c2ccccc2)C1=O` (configuration not stated) the same measures were greater than 200 µM and 0.708 µM. For `Cn1c([N+](=O)[O-])cnc1N1CCN(c2nncs2)C1=O` the same measures were greater than 200 µM and greater than 200 µM. For `Cc1ccc2c(c1)CC1(Cc3cccc(C)c3C1=O)C2=O` (configuration not stated) the same measures were greater than 200 µM and greater than 200 µM. As for `CCc1c2[n-]c(c1C)/C=c1\[n-]/c(c(C)c1CC)=C\c1[n-]c(c(CCC(=O)O)c1C)/C=c1\[n-]/c(c(C)c1CCC(=O)O)=C\2.[Zn]`, the EC50 was greater than 21.4 µM and the IC50 is 13.5 µM.

For the compound `CC(C)Cn1cnnc1NS(=O)(=O)c1cc(C(=O)NN)c(Cl)cc1S`, the EC50 was greater than 200 µM and the IC50 is greater than 200 µM. For `CCN(CC)C(=O)c1cccc2c1OCO2`, the EC50 was greater than 1120 µM and the IC50 was greater than 1120 µM.

With `CCOC(=O)C1C(NC(N)=O)N(Cc2ccccc2)C(=O)N1Cc1ccccc1` (configuration not stated), the EC50 is greater than 447 µM and the IC50 was greater than 447 µM. In the case of `Cc1ccc(/C=C/CO)cc1`, the outcome was inactive. `CN(C)c1ccc(/C=C/c2ccnc3ccccc23)cc1`: the EC50 was greater than 200 µM and the half-maximal inhibitory concentration (IC50) stood at 10.7 µM. In the case of `CCCCCCCCCOC(=S)NCCCCC`, the outcome was inactive.

Consider `[C-]#[O+].[C-]#[O+].[C-]#[O+].[C-]#[O+].[Cr].c1ccc(P(CCP(CCP(c2ccccc2)c2ccccc2)c2ccccc2)CCP(c2ccccc2)c2ccccc2)cc1` (configuration not stated), for which the EC50 was greater than 1.74 µM and the half-inhibitory concentration (IC50) was greater than 1.74 µM.

For `CN1CC2=C(NC(=S)NC2c2ccccc2)/C(=C/c2ccccc2)C1` (configuration not stated), the EC50 was 19.1 µM and the 50% inhibitory concentration (IC50) was found to be 85.1 µM. For `C=CCCCCCCCCCCCC1CCC(CC)N1` (configuration not stated) the same measures were greater than 240 µM and greater than 240 µM.

For the compound `Nc1ncnc2nc(C3OC(CO)C(O)C3O)[nH]c12` (configuration not stated), the EC50 was greater than 70.8 µM and the IC50 is greater than 70.8 µM. On to `COc1ccc(CC2NCCc3cc(OC)c(OC)cc32)cc1` (configuration not stated), for which the EC50 is greater than 794 µM and the IC50 was determined as 138 µM. Taken in the same sequence, the figures for `Cc1cc2ccccc2n1S(=O)(=O)c1ccccc1` were greater than 95.5 µM and greater than 95.5 µM. For `CCCCCCCCCc1ccc(Oc2ccc3c(c2)-c2nc-3nc3[nH]c(nc4nc(nc5[nH]c(n2)c2ccc(Oc6ccc(CCCCCCCCC)cc6)cc52)-c2cc(Oc5ccc(CCCCCCCCC)cc5)ccc2-4)c2ccc(Oc4ccc(CCCCCCCCC)cc4)cc32)cc1` the same measures were greater than 13.5 µM and greater than 13.5 µM.

On to `CC(C)CCC[C@@H](C)[C@H]1CC[C@H]2[C@@H]3CC[C@H]4C[C@@H](CCC=C(c5cc(Cl)c(OCc6ccc(C(=O)O)cc6)c(C(=O)O)c5)c5cc(Cl)c(OCc6ccc(C(=O)O)cc6)c(C(=O)O)c5)CC[C@]4(C)[C@H]3CC[C@]12C`, for which the EC50 is 2.51 µM and the IC50 stood at 50.1 µM.

For the compound `CC1=CC(N2C(=O)C(C)=CC2O)NC1=O` (configuration not stated), the outcome was inactive. On to `CC(=O)OC1CC2C(C)(C)CCCC2(C)C2C(=O)C(O)=C(C(C)C)C(=O)C12` (configuration not stated), for which the EC50 was greater than 200 µM and the IC50 was found to be 2.82 µM.

On to `S=C(N1CC1)N1CC1`, for which the EC50 is greater than 200 µM and the IC50 was 42.7 µM. For `CCCCCCCC(=O)c1ccc(O)c(C(=O)Nc2ccc(C(F)(F)F)cc2)c1`, the EC50 was greater than 33.1 µM and the IC50 came out at 5.01 µM.

With `CCOC(=O)C(C#N)(Cc1ccc2ccccc2n1)Cc1ccc2ccccc2n1`, the EC50 is greater than 200 µM and the IC50 was greater than 200 µM.

For the origin of these results see PubChem BioAssay AID179 (DTP/NCI, 2004).
